Like-named read-outs stand apart in the source and are kept apart here.
Key:
HIV (IHV-1RF) = test: Anti-viral (virucidal) assay: plate-bound HIV treated 10 minutes, C8166 cells added, syncytium score and XTT; type: cell-based; conditions: for Syncytia score day 5 (quadruplicate wells) / Syncytia score day 6 (quadruplicate wells): C8166 cells; for Mean Optical Readings at 450 nm: XTT cell viability
Protocol: HIV was attached to the surface of 96-well cell culture plates using 100 μl of 50 μg/ml poly-L-lysine hydrobromide (PLL) of molecular weight >300 K for 1 h at RT. The outer wells were left uncoated and filled with 250 μl of PBS to counteract the effects of evaporation. The coated wells were washed twice with PBS and 25 μl of RPMI 1640 medium containing 5×10^3 TCID50 of IHV-1RF was added and incubated for 1 h at RT. The wells were then washed twice with PBS and 25 μl of varying concentrations of the test compounds made up with serum free medium (containing a constant 10% DMSO) were added to the wells in quadruplicate and the plates incubated at 37° C. for 10 minutes. The wells were again washed twice with PBS and 5×10^4 C8166 cells in a volume of 300 μl distributed to each well and the plates incubated for 5 and 6 days respectively. On days 5 and 6 the cells were assessed microscopically for the presence of cytopathic effect (syncytium formation) and recorded. In order to quantify the cytopathic effect, XIT which is metabolised by viable but not dead cells, was added and the absorbance read at 450 nm after […] incubation at 37° C.
An assessment of viral cytopathic effect was made microscopically on days 5 and 6, but the end point of the experiment was on day 6 when the level of virus infection (as determined by cell viability) was quantified by the use of XTT.

Chlamydia trachomatis = test: Chlamydia assay: transient treatment of Chlamydia with maleimides, infection of McCoy cells, iodine-stained inclusions counted; type: cell-based; conditions: for activity relative to bis maleimide equivalent: chlamydia infection of McCoy cells; for IODINE-STAINED INCLUSIONS/FIELD F1: field 1; for IODINE-STAINED INCLUSIONS/FIELD F2: field 2; for IODINE-STAINED INCLUSIONS/FIELD F3: field 3; for IODINE-STAINED INCLUSIONS/FIELD F4: field 4; for IODINE-STAINED INCLUSIONS/FIELD F5: field 5; for MEAN COUNT/FIELD (iodine-stained inclusions): mean of 5 fields; for TOTAL COUNT/FIELDS (iodine-stained inclusions): sum of 5 fields; for COMMENTS: inclusions seen on entire coverslip: re-examined under low power; for inhibition of the infection of McCoy cells with chlamydia: transient exposure of chlamydia to compound
Protocol: Purified Chlamydia trachomatis (250 μl) was added to 250 μl of each compound concentration and the mixtures incubated at room temperature for 5 minutes. The tubes were then centrifuged (15000 rpm, 15 minutes), the supernatant decanted and the pellet washed serum free MEM (with 0.5 mls). This step was repeated and the resultant pellet resuspended MEM (in 0.5 ml) and inoculated into a confluent shell vial (coverslip) cultures of McCoy cells. The cultures were centrifuged (3000 rpm, 1 hour at 37° C.) and incubated for a further 2 hours prior to being changed onto MEM with 10% foetal calf serum, I μg/rl cycloheximide, 0.5% added glucose, vancomycin, streptomycin and amphoteracin B (Fungizone). The cultures were incubated for 68 hours, fixed in methanol and stained with Lugol's iodine. 3 replicates of each positive control (with and without DMSO) were included, as well as 2 uninoculated cell controls. Each coverslip culture was examined using low power (10×) objective to ensure that inclusions were evenly distributed and 5 high power (×40) fields were selected at random from different areas of the coverslip. Iodine stained inclusions were counted. Where no inclusions were seen on high power, the culture was re-examined under low power. Table 1. Effect of Transient Treatment with maleimides on Chlamydia Infection of McCoy Cell In Vitro. Chlamydia was pre-treated with each of the indicated maleimides for 5 minutes and the compound removed by centrifugation. McCoy cells were then exposed to the compound pre-treated chlamydia for 68 hours and inclusions counted following staining of cells with Lugols iodine.

[1] = final conc 0.02 (M), working conc 0.04 (M)
[2] = final conc 0.4 (M), working conc 0.8 (M)
[3] = final conc 1 (M), working conc 2 (M), 5 minutes pre-treatment, McCoy cells 68 hours
[4] = final conc 1 (M), working conc 2 (M)

COCCOCCOCCOCCOc1ccc(N2C(=O)C=CC2=O)cc1 [Compound 3, PEG(5) phenyl maleimide]
Syncytia score day 5 (quadruplicate wells) (HIV (IHV-1RF); Conc 0.003 mM): ++++ (50-100% syncytia)
Syncytia score day 6 (quadruplicate wells) (HIV (IHV-1RF); Conc 0.003 mM, day 6): ++++ (50-100% syncytia)
Mean Optical Readings at 450 nm (HIV (IHV-1RF); Conc 0.003 mM, day 6): 0.5018
Syncytia score day 5 (quadruplicate wells) (HIV (IHV-1RF); Conc 0.01 mM): +++ (25-50% syncytia)
Syncytia score day 6 (quadruplicate wells) (HIV (IHV-1RF); Conc 0.01 mM, day 6): ++++ (50-100% syncytia)
Mean Optical Readings at 450 nm (HIV (IHV-1RF); Conc 0.01 mM, day 6): 0.5085
Syncytia score day 5 (quadruplicate wells) (HIV (IHV-1RF); Conc 0.03 mM): +++ (25-50% syncytia)
Syncytia score day 6 (quadruplicate wells) (HIV (IHV-1RF); Conc 0.03 mM, day 6): ++++ (50-100% syncytia)
Mean Optical Readings at 450 nm (HIV (IHV-1RF); Conc 0.03 mM, day 6): 0.5012
Syncytia score day 5 (quadruplicate wells) (HIV (IHV-1RF); Conc 0.1 mM): +++ (25-50% syncytia)
Syncytia score day 6 (quadruplicate wells) (HIV (IHV-1RF); Conc 0.1 mM, day 6): ++++ (50-100% syncytia)
Mean Optical Readings at 450 nm (HIV (IHV-1RF); Conc 0.1 mM, day 6): 0.5118
Syncytia score day 5 (quadruplicate wells) (HIV (IHV-1RF); Conc 0.3 mM): +++ (25-50% syncytia)
Syncytia score day 6 (quadruplicate wells) (HIV (IHV-1RF); Conc 0.3 mM, day 6): ++++ (50-100% syncytia)
Mean Optical Readings at 450 nm (HIV (IHV-1RF); Conc 0.3 mM, day 6): 0.5092
Syncytia score day 5 (quadruplicate wells) (HIV (IHV-1RF); Conc 1 mM): +++ (25-50% syncytia)
Syncytia score day 6 (quadruplicate wells) (HIV (IHV-1RF); Conc 1 mM, day 6): +++ (25-50% syncytia)
Mean Optical Readings at 450 nm (HIV (IHV-1RF); Conc 1 mM, day 6): 0.5268
IC50 (HIV (IHV-1RF); Human immunodeficiency virus 1, C8166, XTT, day 6, virus treated 10 minutes, read-out: IC50 (virucidal)): > 1000 µM
virucidal activity (HIV (IHV-1RF); at concentrations up to 1.0 mM): no virucidal activity
activity relative to bis maleimide equivalent (Chlamydia trachomatis): less active than its PEG bis (phenyl maleimide) equivalent
IODINE-STAINED INCLUSIONS/FIELD F1 (Chlamydia trachomatis; [1]): 12 inclusions/field
IODINE-STAINED INCLUSIONS/FIELD F2 (Chlamydia trachomatis; [1]): 24 inclusions/field
IODINE-STAINED INCLUSIONS/FIELD F3 (Chlamydia trachomatis; [1]): 9 inclusions/field
IODINE-STAINED INCLUSIONS/FIELD F4 (Chlamydia trachomatis; [1]): 29 inclusions/field
IODINE-STAINED INCLUSIONS/FIELD F5 (Chlamydia trachomatis; [1]): 22 inclusions/field
MEAN COUNT/FIELD (iodine-stained inclusions) (Chlamydia trachomatis; [1]): 19 inclusions/field
TOTAL COUNT/FIELDS (iodine-stained inclusions) (Chlamydia trachomatis; [1]): 96
IODINE-STAINED INCLUSIONS/FIELD F1 (Chlamydia trachomatis; [2]): 4 inclusions/field
IODINE-STAINED INCLUSIONS/FIELD F2 (Chlamydia trachomatis; [2]): 7 inclusions/field
IODINE-STAINED INCLUSIONS/FIELD F3 (Chlamydia trachomatis; [2]): 5 inclusions/field
IODINE-STAINED INCLUSIONS/FIELD F4 (Chlamydia trachomatis; [2]): 8 inclusions/field
IODINE-STAINED INCLUSIONS/FIELD F5 (Chlamydia trachomatis; [2]): 4 inclusions/field
MEAN COUNT/FIELD (iodine-stained inclusions) (Chlamydia trachomatis; [2]): 6 inclusions/field
TOTAL COUNT/FIELDS (iodine-stained inclusions) (Chlamydia trachomatis; [2]): 28
IODINE-STAINED INCLUSIONS/FIELD F1 (Chlamydia trachomatis; [3]): 0 inclusions/field
IODINE-STAINED INCLUSIONS/FIELD F2 (Chlamydia trachomatis; [4]): 0 inclusions/field
IODINE-STAINED INCLUSIONS/FIELD F3 (Chlamydia trachomatis; [4]): 0 inclusions/field
IODINE-STAINED INCLUSIONS/FIELD F4 (Chlamydia trachomatis; [4]): 0 inclusions/field
IODINE-STAINED INCLUSIONS/FIELD F5 (Chlamydia trachomatis; [4]): 0 inclusions/field
MEAN COUNT/FIELD (iodine-stained inclusions) (Chlamydia trachomatis; [4]): 0 inclusions/field
COMMENTS: inclusions seen on entire coverslip (Chlamydia trachomatis; [4]): 15
TOTAL COUNT/FIELDS (iodine-stained inclusions) (Chlamydia trachomatis; [4]): 0
inhibition of the infection of McCoy cells with chlamydia (Chlamydia trachomatis): dose-dependent inhibition

CCN1C(=O)C=CC1=O [Compound 4, Ethyl maleimide]
Syncytia score day 5 (quadruplicate wells) (HIV (IHV-1RF); Conc 0.01 mM): ++++ (50-100% syncytia)
Syncytia score day 6 (quadruplicate wells) (HIV (IHV-1RF); Conc 0.01 mM, day 6): ++++ (50-100% syncytia)
Mean Optical Readings at 450 nm (HIV (IHV-1RF); Conc 0.01 mM, day 6): 0.48
Syncytia score day 5 (quadruplicate wells) (HIV (IHV-1RF); Conc 0.03 mM): ++++ (50-100% syncytia)
Syncytia score day 6 (quadruplicate wells) (HIV (IHV-1RF); Conc 0.03 mM, day 6): ++++ (50-100% syncytia)
Mean Optical Readings at 450 nm (HIV (IHV-1RF); Conc 0.03 mM, day 6): 0.4915
Syncytia score day 5 (quadruplicate wells) (HIV (IHV-1RF); Conc 0.1 mM): ++++ (50-100% syncytia)
Syncytia score day 6 (quadruplicate wells) (HIV (IHV-1RF); Conc 0.1 mM, day 6): ++++ (50-100% syncytia)
Mean Optical Readings at 450 nm (HIV (IHV-1RF); Conc 0.1 mM, day 6): 0.5048
Syncytia score day 5 (quadruplicate wells) (HIV (IHV-1RF); Conc 0.3 mM): ++++ (50-100% syncytia)
Syncytia score day 6 (quadruplicate wells) (HIV (IHV-1RF); Conc 0.3 mM, day 6): ++++ (50-100% syncytia)
Mean Optical Readings at 450 nm (HIV (IHV-1RF); Conc 0.3 mM, day 6): 0.502
Syncytia score day 5 (quadruplicate wells) (HIV (IHV-1RF); Conc 1 mM): +++ (25-50% syncytia)
Mean Optical Readings at 450 nm (HIV (IHV-1RF); Conc 1 mM, day 6): 0.5275
Syncytia score day 5 (quadruplicate wells) (HIV (IHV-1RF); Conc 3 mM): 0
Syncytia score day 6 (quadruplicate wells) (HIV (IHV-1RF); Conc 3 mM, day 6): 0
Mean Optical Readings at 450 nm (HIV (IHV-1RF); Conc 3 mM, day 6, No Virus 1.84955, Virus Control 0.5091): 1.6305
IC50 (HIV (IHV-1RF); Human immunodeficiency virus 1, C8166, read-out: IC50 (virucidal)): 1900 µM
activity relative to bis maleimide equivalent (Chlamydia trachomatis): less active than its bis maleimide equivalent
IODINE-STAINED INCLUSIONS/FIELD F1 (Chlamydia trachomatis; [1]): 1 inclusions/field
IODINE-STAINED INCLUSIONS/FIELD F2 (Chlamydia trachomatis; [1]): 11 inclusions/field
IODINE-STAINED INCLUSIONS/FIELD F3 (Chlamydia trachomatis; [1]): 6 inclusions/field
IODINE-STAINED INCLUSIONS/FIELD F4 (Chlamydia trachomatis; [1]): 4 inclusions/field
IODINE-STAINED INCLUSIONS/FIELD F5 (Chlamydia trachomatis; [1]): 2 inclusions/field
MEAN COUNT/FIELD (iodine-stained inclusions) (Chlamydia trachomatis; [1]): 5 inclusions/field
TOTAL COUNT/FIELDS (iodine-stained inclusions) (Chlamydia trachomatis; [1]): 24
IODINE-STAINED INCLUSIONS/FIELD F1 (Chlamydia trachomatis; [2]): 0 inclusions/field
IODINE-STAINED INCLUSIONS/FIELD F2 (Chlamydia trachomatis; [2]): 0 inclusions/field
IODINE-STAINED INCLUSIONS/FIELD F3 (Chlamydia trachomatis; [2]): 0 inclusions/field
IODINE-STAINED INCLUSIONS/FIELD F4 (Chlamydia trachomatis; [2]): 0 inclusions/field
IODINE-STAINED INCLUSIONS/FIELD F5 (Chlamydia trachomatis; [2]): 0 inclusions/field
MEAN COUNT/FIELD (iodine-stained inclusions) (Chlamydia trachomatis; [2]): 0 inclusions/field
COMMENTS: inclusions seen on entire coverslip (Chlamydia trachomatis; [2]): No
TOTAL COUNT/FIELDS (iodine-stained inclusions) (Chlamydia trachomatis; [2]): 0
IODINE-STAINED INCLUSIONS/FIELD F1 (Chlamydia trachomatis; [3]): 0 inclusions/field
IODINE-STAINED INCLUSIONS/FIELD F2 (Chlamydia trachomatis; [4]): 0 inclusions/field
IODINE-STAINED INCLUSIONS/FIELD F3 (Chlamydia trachomatis; [4]): 0 inclusions/field
IODINE-STAINED INCLUSIONS/FIELD F4 (Chlamydia trachomatis; [4]): 0 inclusions/field
IODINE-STAINED INCLUSIONS/FIELD F5 (Chlamydia trachomatis; [4]): 0 inclusions/field
MEAN COUNT/FIELD (iodine-stained inclusions) (Chlamydia trachomatis; [4]): 0 inclusions/field
COMMENTS: inclusions seen on entire coverslip (Chlamydia trachomatis; [4]): No
TOTAL COUNT/FIELDS (iodine-stained inclusions) (Chlamydia trachomatis; [4]): 0
inhibition of the infection of McCoy cells with chlamydia (Chlamydia trachomatis): dose-dependent inhibition
